Test results taken from patent publication US11413278B2, “Compounds and methods for promoting stress resistance” (priority 2015, dated 2022).
Read-outs that look alike come from different tables or passages of the source.

Legend:
NRF2 [1] = test: qPCR analysis of NRF2-regulated genes; format: cell-based, human; conditions: for fold induction at 10 µM: Homo sapiens
In short: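 Expression of HMOX1, NQO1, GCLC and GSTM1 measured by qPCR relative to B2M, PPIA and GAPDH. Cells were WI-38 fibroblasts exposed 24 hrs to 10 μM compound, with RNA and cDNA prepared via Cells-to-Ct. Where stated, cells were first transfected 36 hrs with FOXO3 or NRF2 siRNA at 10 nM.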

NRF2 [2] = test: in vitro; format: cell-based, human
LC3A/B puncta = test: Autophagy induction analysis (LC3A/B puncta immuno-staining); format: cell-based, human; conditions: for Exp. 2, normalized change of nuclei numbers (Less cells): 20X objective, lysosomal LAMP co-staining
In short: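 Read-out is LC3A/B puncta intensity per DAPI-positive nucleus, either total puncta (Exp. 1) or puncta colocalizing with LAMP2 lysosomes (Exp. 2). Cells were WI-38, exposed to compounds for 24 hrs before antibody staining overnight at 4° C and automated imaging.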

C. elegans = C. elegans lifespan assays (liquid and plate); format: in vivo, Caenorhabditis elegans; conditions: for ILS at 60 µM / ILS at 66 µM: Caenorhabditis elegans
[3] = 24 h, Assay 12(o), at 10 uM, qPCR, read-out: Induction of NRF2-regulated genes: GCLC normalized fold-change
[4] = 24 h, Assay 12(o), at 10 uM, qPCR, read-out: Induction of NRF2-regulated genes: NQO1 normalized fold-change
[5] = rounded fold change, WI-38 cells, 10 μM, 24 hrs (RP29 for Gr-4D), read-out: Summary of effects on NRF2-regulated genes: NQO1
[6] = 10 μM, 24 hrs, WI-38 cells, qPCR, normalized to B2M, n = 4, read-out: NQO1 expression, normalized fold change (NRF2-regulated gene)
[7] = WI-38 cells, 10 μM, 24 hrs, n=4, qPCR normalized by B2M, read-out: GCLC Normalized fold change
[8] = WI-38 cells, 10 μM, 24 hrs, n=4, qPCR normalized by B2M, read-out: GSTM1 Normalized fold change
[9] = WI-38 cells, 10 μM, 24 hrs, n=4, qPCR normalized by B2M, read-out: HMOX1 Normalized fold change
[10] = WI-38 cells, 10 μM, 24 hrs, n=4, qPCR normalized by B2M, read-out: NQO1 Normalized fold change
[11] = Exp. 1, 10 μM, 10X objective, WI-38 cells
[12] = 60 μM, in liquid, wild type, with FuDR, 1.0 × 10^9 bacteria/ml, read-out: relative change of mean lifespan vs control, Trial 1
[13] = 60 μM, in liquid, wild type, with FuDR, 2.5 × 10^9 bacteria/ml, read-out: relative change of mean lifespan vs control, Trial 2
[14] = 60 μM, on plate, CF512 temperature-sensitive sterile animals, without FuDR, 2.0 × 10^10 bacteria/ml, read-out: relative change of mean lifespan vs control, Trial 3
[15] = Assay 2(z), at 66 uM, 1.0 × 10^9 bacteria/ml, wild type + FuDR (2012 July), read-out: Lifespan assay in liquid
[16] = Assay 3(aa), at 66 uM, 2.5 × 10^9 bacteria/ml, wild type + FuDR, read-out: Lifespan assay in liquid
[17] = Assay 4(ab), at 66 uM, 2.0 × 10^10 bacteria/ml, CF512 worms, no FuDR, read-out: Lifespan assay on plates
[18] = score scale 0 to 2, 4 to 6 independent trials

Compound | F = Potential NRF2 Activation (NRF2 [1]; 2-point score) | fold induction at 10 µM (NRF2 [1]; [3]) | fold induction at 10 µM (NRF2 [1]; [4]) | fold induction at 10 µM (NRF2 [1]; [5]) | fold induction at 10 µM (NRF2 [1]; [6]) | fold induction at 10 µM (NRF2 [1]; [7]) | fold induction at 10 µM (NRF2 [1]; [8]) | fold induction at 10 µM (NRF2 [1]; [9]) | fold induction at 10 µM (NRF2 [1]; [10]) | F = Potential NRF2 Activation (NRF2 [1]; summary score) | J = NRF2-dependency for H2O2-resistance (NRF2 [2]; score) | J = NRF2-dependency for H2O2-resistance (NRF2 [2]; summary score) | Exp. 1, induction of LC3A/B puncta (Up), total intensity normalized by total number of nuclei in the fields (LC3A/B puncta; [11]) | H = Potential Autophagy Induction (LC3A/B puncta; score) | H = Potential Autophagy Induction (LC3A/B puncta; summary score) | ILS at 60 µM (C. elegans; [12]) [%] | ILS at 60 µM (C. elegans; [13]) [%] | ILS at 60 µM (C. elegans; [14]) [%] | ILS at 66 µM (C. elegans; [15]) [%] | ILS at 66 µM (C. elegans; [16]) [%] | other results
CCc1ccccc1NC(=O)c1ccc([N+](=O)[O-])o1 [Gr-1C] | 0 | 1.65 | 1.33 | 1.46 | 1.46 | 1.82 | 1.77 | 1.32 | 1.46 | 0 | 0 | 0 | p < 0.01; Up, 956%, | 1 | 1 | 14.4 | 1.7 | 14.7 | 14.4 | 1.7 | Induction of at least two NRF2-regulated genes (HMOX1, NQO1, GCLC, GSTM1) (NRF2 [1]; 10 μM, 24 hrs, WI-38): could induce expression of at least two genes; fold induction at 10 µM (NRF2 [1]; rounded fold change, WI-38 cells, 10 μM, 24 hrs, read-out: Summary of effects on NRF2-regulated genes: GCLC): 1.82; fold induction at 10 µM (NRF2 [1]; 10 μM, 24 hrs, WI-38 cells, qPCR, normalized to B2M, n = 4, read-out: GCLC expression, normalized fold change (NRF2-regulated gene)): 1.82; Assay 15: Potential autophagy induction by LC3A/B puncta assays (LC3A/B puncta; 10 uM & 20 uM, YES/NO): YES; Exp. 1, normalized change of nuclei numbers (Less cells) (LC3A/B puncta; [11]): Less cells, 70%,; Exp. 2, normalized change of nuclei numbers (Less cells) (LC3A/B puncta; Exp. 2, 10 μM, WI-38 cells): Less cells, 58%,; Exp. 2, normalized change of nuclei numbers (Less cells) (LC3A/B puncta; Exp. 2, 20 μM, WI-38 cells): Less cells, 41%,; ILS at 66 µM (C. elegans; [17]): 14.7%; O = Life span- extending scores in worms (C. elegans; [18]): 1 (1 for lifespan extension observed in 2 trials); M = Lifespan-extending scores in worms (C. elegans; summary score): 1 (1 for lifespan extension observed in 2 trials)
O=C(Nc1cc(C(F)(F)F)ccc1Cl)c1ccc([N+](=O)[O-])o1 [Gr-1B] | 0 | 1.24 | 1.19 | 1.31 | 1.31 | 1.44 | 2 | 1.31 | 1.31 | 0 | 0 | 0 | No induction | 0 | 0 | 12.9 | 8 | 15.1 | 12.9 | 8 | fold induction at 10 µM (NRF2 [1]; 24 h, Assay 12(o), at 10 uM, qPCR, read-out: Induction of NRF2-regulated genes: GSTM1 normalized fold-change): 1.44; fold induction at 10 µM (NRF2 [1]; rounded fold change, WI-38 cells, 10 μM, 24 hrs (RP29 for Gr-4D), read-out: Summary of effects on NRF2-regulated genes: GSTM1): 2; fold induction at 10 µM (NRF2 [1]; 10 μM, 24 hrs, WI-38 cells, qPCR, normalized to B2M, n = 4, read-out: GSTM1 expression, normalized fold change (NRF2-regulated gene)): 2; ILS at 66 µM (C. elegans; [17]): 15.1%; O = Life span- extending scores in worms (C. elegans; [18]): 1 (1 for lifespan extension observed in 2 trials); M = Lifespan-extending scores in worms (C. elegans; summary score): 1 (1 for lifespan extension observed in 2 trials)
Oc1ccccc1-c1noc(-c2ccccc2O)n1 [O27] | 0 |  |  |  |  |  |  |  |  | 0 | 0 | 0 |  | 0 | 0 |  |  |  |  |  | ILS at 66 µM (C. elegans; read-out: Lifespan assay on plates): -69.3%; ILS at 60 µM (C. elegans; read-out: relative change of mean lifespan vs control, Trial 1): -35.1%; ILS at 60 µM (C. elegans; read-out: relative change of mean lifespan vs control, Trial 2): -17.8%; ILS at 60 µM (C. elegans; read-out: relative change of mean lifespan vs control, Trial 3): -69.3%; M = Lifespan-extending scores in worms (C. elegans; in vivo): 0; O = Life span- extending scores in worms (C. elegans; in vivo): 0
